Holding throughout (format): cell-based
In test [1] the test system is human breast cancer (MCF-7). Briefly: Inhibition of tumour cell proliferation in vitro, MCF-7 ([3H]thymidine incorporation). The conditions noted are these: MCF7, human MCF-7 cells, 24 hours, DNA synthesis by [3H]thymidine incorporation. Here is the method:
(§1) The inhibition of tumour cell proliferation was studied using different types of human cancer cell lines. The cell lines under investigation were small cell lung carcinoma (NYH), non small cell lung carcinoma (NCI-H460), and breast cancer (MCF-7) using the following general procedure:
(§2) The cells were cultured in vitro for 24 hours in the presence of the compound under investigation. DNA synthesis was measured by incorporation of [3H]thymidine, and the median inhibitory concentrations (IC50) of the compounds were calculated.
In general terms: Dividing cells build labelled thymidine or BrdU into new DNA.

Test [2] concerns human small cell lung carcinoma (NYH). Briefly: Inhibition of tumour cell proliferation in vitro, NYH ([3H]thymidine incorporation). The conditions noted are these: human NYH cells, 24 hours, DNA synthesis by [3H]thymidine incorporation. Here is the method: as §1, §2
Test [3] relates to human non small cell lung cancer (NCI-H460). The experiment in a line: Inhibition of tumour cell proliferation in vitro, NCI-H460 ([3H]thymidine incorporation). The conditions noted are these: human NCI-H460 cells, 24 hours, DNA synthesis by [3H]thymidine incorporation. Here is the method:
as §1, §2

Five compounds from patent US6121297A, “Cyanoguanidines as cell proliferation inhibitors” (Leo Pharmaceutical Products Ltd. A/S, priority 1997, dated 2000) can be followed below.

The term IC50 denotes the midpoint of a concentration-inhibition curve. The low end stands for greater potency, the high end for weaker potency.

For the compound `N#CNC(=Nc1ccncc1)NCCCCCCCCCCCOc1ccccc1` [Example No. 1, N-Cyano-N'-(11-phenoxyundecyl)-N"-4-pyridylguanidine], the IC50 in test [1] was 21 nM; in test [2] it was 4.5 nM.

On to `N#CNC(=Nc1ccncc1)NCCCCCCCCCCOc1ccccc1` [Example No. 3, N-Cyano-N'-(10-phenoxydecyl)-N"-4pyridylguanidine], for which the values for the 50% inhibitory concentration (IC50) in test [1], in test [2] and in test [3] were 13 nM, 5.9 nM and 49 nM, respectively.

`N#CNC(=Nc1ccncc1)NCCCCCCCCCOc1ccccc1` [Example No. 4, N-Cyano-N'-(9-phenoxynonyl)-N"-4-pyridylguanidine]: the IC50 was found to be 18 nM in test [1], 5.3 nM in test [2] and 43 nM in test [3].

With `N#CN=C(NCCCCOc1ccccc1)Nc1ccncc1` [Prior art A, NCyano-N(4-phenoxybutyl)-N4-pyridylguanidine, reference compound], the IC50 in test [1] was 920 nM; in test [2], 380 nM; in test [3], greater than 1000 nM.

For the compound `N#CN=C(NCCCCCOc1ccccc1)Nc1ccncc1` [Prior art B, NCyano-N(5-phenoxypentyl)-N4-pyridylguanidine, reference compound], the IC50 came to 250 nM in test [1], 45 nM in test [2] and 67 nM in test [3].
